Measured values reported in patent publication US9808003B2, “Herbicidally active 2-(substituted-phenyl)-cyclopentane-1,3-dione compounds and derivatives thereof” (Syngenta Limited, priority 2013, dated 2017).

Columns and labels:
Assay in all cases: Test 1A glasshouse assay, post-emergence herbicidal activity
Type in all cases: in vivo
Lolium perenne (LOLPE) = conditions: Lolium perenne, 312 h, application rate 250 g/ha, 13 days after application, visual (100%=total damage; 0%=no damage), read-out: Post-emergence Herbicidal Activity (% Phytotoxicity) LOLPE
Method in brief: (§1)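 Herbicidal effect is scored by eye as % phytotoxicity (0–100%) 13 days after treatment of 8-day-old glasshouse-grown plants. The spray solution contains the technical active ingredient in acetone/water with 0.5% Tween 20.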

[1] = system: Echinochloa crus-galli (ECHCG); conditions: Echinochloa crus-galli, 312 h, application rate 250 g/ha, 13 days after application, visual (100%=total damage; 0%=no damage), read-out: Post-emergence Herbicidal Activity (% Phytotoxicity) ECHCG
Method in brief: as §1

Avena fatua (AVEFA) = conditions: Avena fatua, 312 h, application rate 250 g/ha, 13 days after application, visual (100%=total damage; 0%=no damage), read-out: Post-emergence Herbicidal Activity (% Phytotoxicity) AVEFA
Method in brief: as §1

[2] = system: Alopecurus myosuroides (ALOMY); conditions: Alopecurus myosuroides, 312 h, application rate 250 g/ha, 13 days after application, visual (100%=total damage; 0%=no damage), read-out: Post-emergence Herbicidal Activity (% Phytotoxicity) ALOMY
Method in brief: as §1

Row | Compound | pest or weed control at 250 g/ha (Lolium perenne (LOLPE)) [%] | pest or weed control at 250 g/ha [1] [%] | pest or weed control at 250 g/ha (Avena fatua (AVEFA)) [%] | pest or weed control at 250 g/ha [2] [%]
1 | Cc1cc(C)c(C2C(=O)CC(CCNC(=O)c3sc(C(F)(F)F)nc3C(F)(F)F)C2=O)c(C)c1 (stereo not drawn) [Compound A172] | 100 | 100 | 90 | 90
2 | Cc1cc(C)c(C2C(=O)CC(CCNC(=O)c3cc(C(F)(F)F)nn3C)C2=O)c(C)c1 (stereo not drawn) [Compound A173] | 100 | 100 | 100 | 100
3 | COCc1nc(C2CC2)c(C(=O)NCCC2CC(=O)C(c3c(C)cc(C)cc3C)C2=O)s1 (stereo not drawn) [Compound A174] | 100 | 90 | 100 | 90
4 | Cc1cc(C)c(C2C(=O)CC(CCNC(=O)c3nn(C)c(C)c3Cl)C2=O)c(C)c1 (stereo not drawn) [Compound A177] | 90 | 100 | 90 | 100
5 | Cc1cc(C)c(C2C(=O)CC(CCNC(=O)c3oc(C)nc3C)C2=O)c(C)c1 (stereo not drawn) [Compound A178] | 100 | 80 | 90 | 70
6 | Cc1cc(C)c(C2C(=O)CC(CCNC(=O)c3c(C)noc3C)C2=O)c(C)c1 (stereo not drawn) [Compound A179] | 70 | 80 | 100 | 70
7 | Cc1cc(C)c(C2C(=O)CC(CCNC(=O)c3snnc3C)C2=O)c(C)c1 (stereo not drawn) [Compound A180] | 80 | 90 | 80 | 70
8 | Cc1cc(C)c(C2C(=O)CC(CCNC(=O)c3ocnc3C)C2=O)c(C)c1 (stereo not drawn) [Compound A181] | 90 | 80 | 100 | 80
9 | Cc1cc(C)c(C2C(=O)CC(CCNC(=O)c3nc(C)sc3C)C2=O)c(C)c1 (stereo not drawn) [Compound A182] | 80 | 90 | 90 | 80
10 | Cc1cc(C)c(C2C(=O)CC(CCNC(=O)c3sc(C)nc3C(F)F)C2=O)c(C)c1 (stereo not drawn) [Compound A183] | 90 | 90 | 60 | 60
11 | Cc1cc(-c2ccccc2Cl)cc(C)c1C1C(=O)CC(CCNC(=O)c2ccccn2)C1=O (stereo not drawn) [Compound A184] | 60 | 90 | 20 | 10
12 | Cc1cc(C)c(C2C(=O)CC(CCNC(=O)c3ncc(Br)cc3F)C2=O)c(C)c1 (stereo not drawn) [Compound A185] | 100 | 100 | 100 | 90
13 | Cc1cc(C)c(C2C(=O)CC(CCNC(=O)c3ccc(F)c(Br)n3)C2=O)c(C)c1 (stereo not drawn) [Compound A186] | 100 | 100 | 90 | 100
14 | Cc1cc(C)c(C2C(=O)CC(CCNC(=O)c3ncc(F)cc3Br)C2=O)c(C)c1 (stereo not drawn) [Compound A187] | 100 | 100 | 90 | 90
15 | Cc1cc(C)c(C2C(=O)CC(CCNC(=O)c3ccc(OC(F)F)cn3)C2=O)c(C)c1 (stereo not drawn) [Compound A188] | 100 | 100 | 100 | 100
16 | Cc1cc(C)c(C2C(=O)CC(CCNC(=O)c3ncc(Cl)cc3F)C2=O)c(C)c1 (stereo not drawn) [Compound A189] | 100 | 100 | 100 | 100
17 | Cc1cc(C)c(C2C(=O)CC(CCNC(=O)c3ccc(C=C(F)F)cn3)C2=O)c(C)c1 (stereo not drawn) [Compound A190] | 90 | 90 | 90 | 80
18 | Cc1cc(-n2cc(Cl)cn2)cc(C)c1C1C(=O)CC(CCNC(=O)c2nc(Br)ccc2F)C1=O (stereo not drawn) [Compound A191] | 90 | 100 | 100 | 100

Row | Compound | pest or weed control at 250 g/ha (Lolium perenne (LOLPE)) [%] | pest or weed control at 250 g/ha [1] [%] | pest or weed control at 250 g/ha (Avena fatua (AVEFA)) [%] | pest or weed control at 250 g/ha [2] [%]
19 | CC#Cc1ccc(C(=O)NCCC2CC(=O)C(c3c(C)cc(C)cc3C)C2=O)nc1 (stereo not drawn) [Compound A192] | 100 | 100 | 90 | 80
20 | Cc1cc(C)c(C2C(=O)CC(CCNC(=O)c3nc(Br)ccc3F)C2=O)c(C)c1 (stereo not drawn) [Compound A193] | 100 | 90 | 90 | 90
21 | Cc1cc(C)c(C2C(=O)CC(CCNC(=O)c3nccnc3Cl)C2=O)c(C)c1 (stereo not drawn) [Compound A194] | 90 | 100 | 90 | 80
22 | Cc1cc(C)c(C2C(=O)CC(CCNC(=O)c3cnc(Cl)cn3)C2=O)c(C)c1 (stereo not drawn) [Compound A195] | 60 | 80 | 30 | 30
23 | Cc1cc(C)c(C2C(=O)CC(CCNC(=O)c3cncc(Cl)n3)C2=O)c(C)c1 (stereo not drawn) [Compound A196] | 90 | 100 | 90 | 80
24 | Cc1cc(Br)cc(Br)c1C1C(=O)CC(CCNC(=O)c2ccccn2)C1=O (stereo not drawn) [Compound A197] | 60 | 100 | 70 | 90
25 | Cc1cc(-c2cc(Cl)cc(Cl)c2)cc(C)c1C1C(=O)CC(CCNC(=O)c2ccccn2)C1=O (stereo not drawn) [Compound A203] | 80 | 100 | 100 | 80
26 | Cc1ccc(-c2cc(C)c(C3C(=O)CC(CCNC(=O)c4ccccn4)C3=O)c(C)c2)cc1 (stereo not drawn) [Compound A204] | 100 | 100 | 90 | 90
27 | Cc1cc(C)c(C2C(=O)CC(CCNC(=O)c3snc(Cl)c3Cl)C2=O)c(C)c1 (stereo not drawn) [Compound A212] | 70 | 70 | 50 | 30
28 | Cc1cc(C)c(C2C(=O)CC(CCNC(=O)c3sc(Cl)nc3C(F)(F)F)C2=O)c(C)c1 (stereo not drawn) [Compound A213] | 60 | 50 | 10 | 10
29 | COC(=O)OC(C)OC1=C(c2c(C)cc(C)cc2C)C(=O)C(CCNC(=O)c2ccc(Br)cn2)C1 (stereo not drawn) [Compound P3] | 100 | 100 | 100 | 90
30 | CCSC(=O)OC1=C(c2c(C)cc(C)cc2C)C(=O)CC1CCNC(=O)c1ccc(Br)cn1 (stereo not drawn) [Compound P10] | 100 | 100 | 100 | 100
31 | CCOC(=O)OC1=C(c2c(C)cc(C)cc2C)C(=O)C(CCNC(=O)c2ccc(Br)cn2)C1 (stereo not drawn) [Compound P11] | 100 | 100 | 100 | 100
32 | CCCCC(=O)OC1=C(c2c(C)cc(C)cc2C)C(=O)C(CCNC(=O)c2ccc(Br)cn2)C1 (stereo not drawn) [Compound P12] | 100 | 100 | 100 | 100
33 | Cc1cc(C)c(C2=C(OC(=O)C(C)(C)C)CC(CCNC(=O)c3ccc(Br)cn3)C2=O)c(C)c1 (stereo not drawn) [Compound P13] | 100 | 100 | 100 | 100
34 | Cc1cc(-n2cc(Cl)cn2)cc(C)c1C1=C(OC(=O)c2ccc(F)cc2)CC(CCNC(=O)c2ccccn2)C1=O (stereo not drawn) [Compound P14] | 100 | 100 | 100 | 100
35 | CCCCS(=O)(=O)OC1=C(c2c(C)cc(-n3cc(Cl)cn3)cc2C)C(=O)C(CCNC(=O)c2ccccn2)C1 (stereo not drawn) [Compound P15] | 100 | 100 | 100 | 100
36 | Cc1cc(-n2cc(Cl)cn2)cc(C)c1C1=C(OS(=O)(=O)c2ccc(F)cc2)CC(CCNC(=O)c2ccccn2)C1=O (stereo not drawn) [Compound P16] | 100 | 100 | 90 | 100
